Legend:
[1] = system: Bone marrow cells from WT, TLR7KO, and TLR9KO mice; experiment: TLR9 dependency: IL-6 production in bone marrow cells, ELISA; assay type: cell-based, mouse; conditions: R848 1 ug/mL, D35 10 uM=63.4 ug/mL, nanoparticles 1 μg/mL in terms of D35, 24 hours; for IL-6 production in TLR7KO: TLR7KO bone marrow cells; for IL-6 production in TLR9KO: TLR9KO bone marrow cells
Source text: (§1) The content of each lipid per 100 mass % of lipids constituting the lipid particles is as follows: DOTAP: 50 mass %, DPPC: 19.5 mass %, cholesterol: 30 mass %, and DSPE-PEG (2 k (PEG chain length))-OMe: 0.5 mass % or 3.0 mass %. The ratio (N/P) of the number of nitrogen atoms (N) in the lipids constituting the lipid particles to the number of phosphorus atoms (D35) (P) in the nucleic acid was set to 3. A D35-containing aqueous solution and a lipid-containing ethanol solution were mixed using the NanoAssemblr (produced by Precision NanoSystems) to obtain lipid nanoparticles, which were then dialyzed against a 5% glucose aqueous solution. In this Test Example and the following Test Examples, the D35-containing lipid nanoparticles obtained here were used.
(§2) Bone marrow cells were prepared from each of WT, TLR7KO, and TLR9KO mice, and stimulated with R848 (TLR7/8 agonist; medium final concentration: 1 ug/mL), D35 (TLR9 agonist; medium final concentration: 10 uM=63.4 ug/mL), and D35-containing lipid nanoparticles (medium final concentration in terms of D35: 1 μg/mL), followed by culturing for 24 hours. Then, the amounts of IFN-I and IL-6 in the culture supernatant were quantified by a biological activity measurement method using murine type I IFNs sensor cells (B16-Blue IFN-α/a cells) and by the usual ELISA method, respectively.

[2] = system: MC38 mouse colorectal cancer-derived tumor; experiment: MC38 mouse colorectal cancer-derived tumor model, tumor size; assay type: in vivo; conditions: Test Example 6, FIG. 6: intratumoral, days 9, 11, 13, 15, 17; 4.5 ug/shot D35; effect on days 17 and 21
Description: On days 9, 11, 13, 15, and 17 after subcutaneous transplantation of MC38 (1×10^6 cells), a pharmaceutical agent (D35 or D35-containing lipid nanoparticles (DSPE-PEG-OMe content: 0.5 mass %)) was intratumorally administered 5 times in total. Then, the tumor size was measured. The amount of D35 nucleic acid administered at one time was adjusted to 4.5 ug/shot.
On days 9, 11, 13, 15, and 17 after subcutaneous transplantation of MC38 (1×10^6 cells), D35-containing lipid nanoparticles (DSPE-PEG-OMe content: 0.5 mass %) were intratumorally administered 5 times in total. Then, the tumor size was measured. Further, in order to deplete CD8T cells, anti-CD8a antibody (100 ug/shot) or control antibody (100 ug/shot) was intraperitoneally administered on days 6 and 13 after subcutaneous transplantation. The amount of D35 nucleic acid administered at one time was adjusted to 4.5 ug/shot.
On days 9, 11, 13, 15, and 17 after subcutaneous transplantation of MC38 (1×10^6 cells), a pharmaceutical agent (D35 or D35-containing lipid nanoparticles (DSPE-PEG-OMe content: 0.5 mass %)) was administered intravenously 5 times in total. Then, the tumor size was measured. […]
On days 9, 11, 13, 15, and 17 after subcutaneous transplantation of MC38 (1×10^6 cells), D35-containing lipid nanoparticles (DSPE-PEG-OMe content: 0.5 mass %) were administered intravenously 5 times in total. Then, the tumor size was measured. […]

[3] = system: Bone marrow cells from WT, TLR7KO, and TLR9KO mice; experiment: TLR9 dependency: IFN-I production in bone marrow cells, B16-Blue sensor cell bioassay; assay type: cell-based, mouse; conditions: R848 1 ug/mL; 24 hours
Source text: as §1, §2

Compound | IL-6 production in TLR7KO [1] | IL-6 production in TLR9KO [1] | tumor size [2] | IFN-I production [3]
G_G_TGCATCGATGCAGGGG_G_G (DNA GGTGCATCGATGCAGGGGGG; DNA, linkages s2 o15 s2 (s phosphorothioate, o phosphodiester), methylation of C not given here; formulated in lipid nanoparticles) [D35, A-type CpG oligodeoxynucleotide, TLR9 agonist, not complexed with lipids] | did not disappear | disappeared almost completely | No effect was observed | 
CCOCc1nc2c(N)nc3ccccc3c2n1CC(C)(C)O [R848] | disappeared | did not disappear |  | very weak
